Measurements published in patent publication US20100021936A1, “Sensor for Spores” (priority 2007, published 2010).

Experiments:
[1] = tested on: antibody-immobilised spores; assay type: cell-based
[2] = tested on: B. megaterium QM B1551 "receptorless" spore; assay type: cell-based, Bacillus megaterium
[3] = tested on: Bacillus megaterium QM B1551 spores; assay type: cell-based
[4] = tested on: CwlJ knock-out strain of Bacillus megaterium; assay type: cell-based

Compound | germination response by micrographs [1] | germination response of receptorless spores [2] | concentration of Ca-DPA at which spores germinate [3] [mM] | germination in response to exogenous Ca-DPA [4]
C[C@H](N)C(=O)O [L-alanine] | transition from phase bright spores to phase dark | lost the ability to respond | – | –
O=C(O)c1cccc(C(=O)O)n1 [Ca-DPA, dipicolinic acid] | – | – | ~30 | does not germinate
